Data as given in patent US6676950B2, “Neurokinin receptor antagonists and methods of use thereof for inhibiting HIV infection” (The Children's Hospital of Philadelphia, priority 2001, dated 2004).

What was measured:
[1] = test system: CD4, CXCR4 and CD14 receptors; assay: Flow cytometry of CD4, CXCR4 and CD14 receptor expression on MDM; type: cell-based, human; conditions: incubated overnight (24 h); direct immunofluorescence
Description: (§1) The cells were removed from the culture plate and then resuspended in 100 μl of phosphate-buffered saline (PBS). After incubation with 20 μl of either anti-CCR5-FITC or anti-CXCR4-FITC or anti-CD4-FITC or anti-CD14-FITC for 45 min at 4° C., the cells were washed twice with PBS and fixed with 1% paraformaldehyde in PBS. Fluorescein-conjugated control antibodies were isotype-matched IgG. Fluorescence was analyzed on an EPICS-Elite flow cytometer (Beckman-Coulter Electronics, Hialeah, Fla.).

CCR5 = assay: Flow cytometry of CCR5 receptor expression on MDM; type: cell-based, human
Description: as §1

[2] = test system: R5 strains (Bal, ADA, CSF-6 and BL-6); assay: HIV RT activity in MDM infected with R5 strains; type: cell-based; conditions: 8 days after infection
Description: (§2) Based upon their differential use of the major HIV co-receptors, HIV isolates have been referred to as R5, X4 or R5X4 strains, respectively (29). The M-tropic (macrophage-tropic) R5 prototype strains (Bal and ADA), dual tropic strain (89.6) and X4 primary isolate (UG024), were obtained from the NIH AIDS Reagent Program. Primary M-tropic isolates (BL-6 and CSF-6) were isolated from the blood and cerebrospinal fluid cells, respectively, of a subject with AIDS. […] The cells were also incubated with SP and/or anti-SP antibody. In this case, SP was incubated with (1:1000 dilution in 10% FCS DMEM) or without anti-SP antibody at room temperature for 10 min and then the mixture was added to the cell cultures for 2 h. When the cells were treated with the combination of CP-96,345 and SP, or CP-96,345, SP and anti-SP antibody, CP-96,345 was incubated with the cell culture for 10 min and then SP was added to the MDM or CP-96,345, SP and anti-SP (1:1000 in 10% FCS DMEM) were incubated for 10 min at room temperature and the mixture was incubated with the MDM for 2 h before infection with HIV. Untreated MDM served as controls. The cells were treated prior to, during, and throughout the infection. […]

[3] = test system: luciferase-encoding HIV virions pseudotyped with ADA Env (CCR5-dependent); assay: Pseudotype reporter virus entry assay, ADA Env; type: cell-based
Description: Pseudotype reporter virus entry assay: Recombinant luciferase-encoding HIV virions pseudotyped with Env from the M-tropic ADA (CCR5-dependent) and amphitropic murine leukemia virus (MLV) (CCR5-independent) were used to study HIV infection of MDM incubated with or without CP-96,345 or R-113281. The Env-deleted luciferase reporter plasmid PNL-Luc-E-R+ (kindly provided by N. Landau) was cotransfected into 293T cells along with plasmids encoding the ADA or MLV Env genes as previously described (31). Supernatants were collected 48 h later, assayed for p24^Gag antigen content, and frozen at −80° C. MDM (2.5×10^5 cells/well, in 48-well plates) were incubated overnight with or without CP-96,345 or R-113281 and then infected using 20 ng of p24^Gag antigen equivalent of each pseudotype HIV per well, in the presence of polybrene (7.5 μg/ml). At 72 h postinfection, the cells were lysed in 150 μl of 0.5% Triton-X-100 in PBS. Lysate (50 μl) was mixed with an equal volume of luciferase substrate (Promega, […].) and luciferase activity was determined in a microtiter plate luminometer (Dynex Technologies, Chantilly, Va.). The results were expressed as relative light units (RLU) in CP-96,345-treated or R-113281-treated and infected MDM as a percentage of that in untreated and infected MDM.

CCR5 mRNA = CCR5 mRNA expression in MDM by RT-PCR / real-time RT-PCR; type: cell-based, human; conditions: for relative CCR5 mRNA level (real-time RT-PCR): 4 hours
Description: Total RNA was isolated from human peripheral blood MDM (10^6 cells) using Tri-Reagent (Molecular Research Center, Cincinnati, Ohio) as we previously reported (16).
Reverse transcription: Total RNA (1 μg) was reverse transcribed using Reverse Transcription System (Promega, Madison, Wis.) with the specific primers (antisense) for HIV gag (5′-[…]-[…]-3′; SEQ ID NO: 1) (27) or CCR5 (5′-[…]-3′; SEQ ID NO: 2) (32) for 1 h at 42° C. RT reactions was terminated by incubating the reaction mixture at 99° C. for 5 min and then kept at 4° C. The resulting cDNA was used as a template for PCR amplification or real time PCR quantification.
Polymerase chain reaction (PCR) analysis: PCR amplification of CCR5 and HIV gag cDNA was performed with one tenth of the cDNA for 35 cycles (CCR5) (32) or 40 cycles (gag) (27) using AmpliTaq Gold (Perkin ElmerCetus, Foster City, Calif.) in a GeneAmp PCR System 2400 (Perkin Elmer-Cetus). β-Actin was used as a control to monitor the amount and integrity of RNA in each sample (Clontech, Palo Alto, Calif.). Real time PCR was performed with one tenth of cDNA using ABI Prism 7700 Sequence Detection System (Perkin Elmer). The reaction mixture contained 0.25 mM of dNTPs, AmpliTaq Gold (1.5 U), 5 mM of MgCl2, 50 pmole of each of the two primers (SK38: 5′-[…]-3′(SEQ ID NO: 3); SK39: 5′-[…]-3′; SEQ ID NO: 4), 20 pmole of the molecular beacon probe (SK19: 5′[…]-3′; SEQ ID NO: 5) labeled with FAM (a fluorophore) at its 5′ end and DABCYL (a quencher) at the 3′end. The cycle conditions were 95° C. 10 min followed by 40 cycles of 95° C. 15 sec and 60° C. 1 min. The known amounts of HIV DNA isolated from ACH-2 cells were used as standard controls. All standards and samples were run in duplicates. HIV gag, CCR5, β-Actin primer pairs and the probe (SK19) were synthesized by Integrated DNA Technologies, Inc. (Coralville, Ind.).

X4 strain (UG024) = assay: HIV RT activity in MDM infected with X4 strain; type: cell-based; conditions: 8 days after infection
Description: as §2

| Structure (SMILES) | CD4, CXCR4 and CD14 receptor expression on MDM [1] | CCR5 receptor expression on MDM (percentage positive cells) (CCR5; incubated overnight (24 h), direct immunofluorescence) | replication of R5 strains (HIV RT activity) ([2]; CP-96,345 10^−7M) | ADA Env-pseudotyped HIV infection of MDM (luciferase activity) ([3]; CP-96,345 10^−8 and 10^−7 M overnight pretreatment) | CCR5 mRNA in MDM (RT-PCR) (CCR5 mRNA; 10^−8 to 10^−6M, 3 h) | relative CCR5 mRNA level (real-time RT-PCR) (CCR5 mRNA; CP-96,345 10^−7 M to 10^−6 M) | replication of X4 strain UG024 (HIV RT activity) (X4 strain (UG024); CP-96,345 10^−7M) | CCR5 protein expression (percentage of CCR5 positive cells, flow cytometry) (CCR5; R-113281 10^−6 M, 24 hours) | replication of R5 strains (HIV RT activity) ([2]; R-113281 10^−6 M) | ADA Env-pseudotyped HIV infection of MDM (luciferase activity) ([3]; R-113281 10^−7 and 10^−6 overnight pretreatment) | relative CCR5 mRNA level (real-time RT-PCR) (CCR5 mRNA; R-113281 10^−8 M to 10^−6 M) | replication of X4 strain (HIV RT activity) (X4 strain (UG024); R-113281 10^−6 M) |
| --- | --- | --- | --- | --- | --- | --- | --- | --- | --- | --- | --- | --- |
| COc1ccccc1CN[C@H]1C2CCN(CC2)[C@H]1C(c1ccccc1)c1ccccc1 [CP-96,345, [2S,3S)-cis-2-(diphenylmethyl)-N-[(2-methoxyphenyl)-methyl]-1-azabicyclo [[2.2.2]-octan-3-amine]] | only CCR5 expression was down-regulated | down-regulated | inhibited | inhibited | down-regulated | significantly down-regulated | not affected |  |  |  |  |  |
| COc1cc(C(=O)N2CCO[C@](CCN3CCC4(CC3)c3ccccc3C[S@+]4[O-])(c3ccc(Cl)c(Cl)c3)C2)cc(OC)c1OC.Cl [R-113281] |  |  |  |  |  |  |  | inhibited | inhibited | inhibited | significantly down-regulated | not affected |
